{"source": "patent US12281084B2", "about": "“Acetyl-CoA synthetase 2 (ACSS2) inhibitors and methods using same” (The Wistar Institute, priority 2019, dated 2025)", "key": {"[1]": {"tested_on": "BT474 tumors", "assay": "In vivo 13C2-acetate tracing in BT474 tumors", "design": "species or system mouse", "method": "All metabolomic experiments were performed in serum-like modified Eagle's medium (SMEM). SMEM contains 54 different nutrients that are found in the bloodstream at concentrations that are physiologically relevant to humans. SMEM was supplemented with 10% or 1% fetal bovine serum (FBS; Life Technologies). Cells were grown in normoxia (atmospheric oxygen) or hypoxia (1% oxygen) while being incubated in uniformly labeled ^13C2-acetate (0.100 mM; Cambridge Isotope Laboratories). Lengths of incubation are described in the figure legends. For extraction of metabolites from cultured cells, SMEM medium was aspirated and cells were washed once in ice-cold PBS. Metabolites were extracted by adding a solution of LC-MS grade methanol/acetonitrile/water (5:3:2) to the well. Plates were incubated at 4° C. for 5 minutes on a rocker and then the extraction solution was collected. The metabolite extract was cleared by centrifugation at 15,000×g for 10 minutes at 4° C. Supernatants were transferred to LC-MS silanized glass vials with PTFE caps and either run immediately on the LC-MS or stored at −80° C. […]\nLC-MS analysis was performed on a Q Exactive Hybrid Quadrupole-Orbitrap HF-X MS (ThermoFisher Scientific) equipped with a HESI II probe and coupled to a Vanquish Horizon UHPLC system (ThermoFisher Scientific). […] Samples were analyzed in full MS scan with polarity switching at scan range 65 to 975 m/z; 120,000 resolution; automated gain control (AGC) target of 1E6; and maximum injection time (max IT) of 100 milliseconds. Identification and quantitation of metabolites was performed using an annotated compound library and TraceFinder 4.1 software. […]\nOn-target activity of VY-3-135 in the tumor was probed. […] Tumor lipid extracts were saponified and the resulting fatty acids were analyzed by LC-MS. Likewise, polar metabolites were extracted from matching tumor samples and analyzed by LC-MS. […] Isotopologs ≥M+10 were not detected in tumors from VY-3-135 treated mice."}, "[2]": {"tested_on": "Brpkp110 tumors", "assay": "Brpkp110 tumor xenograft growth in NSG mice", "assay_type": "in vivo, mouse", "conditions": "daily intraperitoneal injection for two weeks, 100 mg/kg (FIG. 5E)", "method": "For BT474 mouse xenograft studies 5-6 week old female NSG […] were anesthetized and one 17β-estradiol 60 day release pellet (Innovative Research of America Cat. No. SE-121) was injected subcutaneously via 10 gauge precision trochar into the lateral side of the neck between the ear and shoulder. 24 hours later 10^5 BT474 luciferase positive cells in 100 μl PBS:matrigel (growth factor reduced) were injected subcutaneously into the hind limb. For A7C11 and Brpkp110 xenografts, 5×10^5 cells in 100 μl PBS:Matrigel (growth factor reduced Corning Cat. No. 356231) were subcutaneously injected into the hindlimb of 5-6 week old female NSG mice […]. Following tumor establishment in all groups, mice were randomized and treated intraperitoneally (IP) daily with vehicle (10% DMSO, 10% absolute ethanol, 20% solutol, 60% water containing 0.5% Tween20) or 100 mg/kg VY-3-135 as indicated in the figure legend. Tumors were measured thrice weekly via caliper measurement and tumor volume calculated as (L×W^2)/2 (where L is the longer of the 2 measurements). At the study conclusion all tumors were resected and processed fresh or flash frozen in liquid nitrogen and stored at −80° C. for downstream analysis.\nTumor bearing mice were given daily intraperitoneal injection of VY-3-135 for two weeks. […]"}, "[3]": {"tested_on": "BT474 tumors", "assay": "QuantSeq 3' mRNA sequencing of BT474 tumor tissue", "assay_type": "in vivo, mouse", "conditions": "vehicle vs treated mice", "method": "QuantSeq 3′ mRNA sequencing of BT474 tumor tissue from vehicle and VY-3-135 treated mice was performed. Similar to in vitro results in FIG. 3, the effects of VY-3-135 on gene transcription in vivo were minimal. […] Furthermore, of the 248 differentially regulated genes only 7 changed by more than 2-fold and none by more than 2.5-fold (FIGS. 14A-14B)."}}, "note": "“Also recorded” adds a separate entry of the source."}
{"smiles": "CCn1c(C(O)(c2ccccc2)c2ccccc2)nc2ccc(C(=O)NC[C@@H](C)O)cc21", "note": "[VY-3-135, (R)-1-ethyl-2-(hydroxydiphenylmethyl)-N-(2-hydroxypropyl)-1H-benzo[d]imidazole-6-carboxamide]", "values": [{"measurement": "13C2-acetate labeling of citrate in tumors", "setting": "[1]; BT474 tumors (FIG. 6D)", "value": "no effect was observed"}, {"measurement": "palmitate isotopologs ≥M+10 in tumors", "setting": "[1]; BT474 tumors from treated mice", "value": "not detected"}, {"measurement": "13C labeling of palmitate in tumors", "setting": "[1]; BT474 tumors, 13C2-acetate in drinking water 48 hours (FIG. 6C)", "value": "caused a significant decrease in the ^13C labeling of palmitate"}, {"measurement": "Brpkp110 tumor growth", "setting": "[2]", "value": "causes a significant decrease in Brpkp110 tumor growth; also recorded: caused significant reduction in Brpkp110 tumor growth"}, {"measurement": "effects on gene transcription in vivo", "setting": "[3]", "value": "minimal"}]}
